# Experimental data from ChEMBL document CHEMBL1151734, “Cytochrome P450 2C9 type II binding studies on quinoline-4-carboxamide analogues” (J Med Chem, 2008).
# Target: T1, Cytochrome P450 2C9 (Homo sapiens, UniProt P11712)
# Assay: Inhibition of purified CYP2C9
# T1 sequence (P11712 whole entry): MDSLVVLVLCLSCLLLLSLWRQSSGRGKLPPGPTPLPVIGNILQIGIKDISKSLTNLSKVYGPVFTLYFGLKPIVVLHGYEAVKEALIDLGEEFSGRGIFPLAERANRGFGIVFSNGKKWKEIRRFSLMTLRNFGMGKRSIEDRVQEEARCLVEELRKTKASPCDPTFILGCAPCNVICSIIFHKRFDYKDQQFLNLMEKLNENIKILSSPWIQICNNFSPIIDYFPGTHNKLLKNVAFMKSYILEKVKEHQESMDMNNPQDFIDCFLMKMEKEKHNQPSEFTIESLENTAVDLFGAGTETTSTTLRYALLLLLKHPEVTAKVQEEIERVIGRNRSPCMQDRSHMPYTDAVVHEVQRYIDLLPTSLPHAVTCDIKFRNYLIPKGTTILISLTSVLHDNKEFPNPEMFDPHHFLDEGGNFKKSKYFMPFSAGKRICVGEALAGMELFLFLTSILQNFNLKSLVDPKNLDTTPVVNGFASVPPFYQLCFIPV
row,Structure (SMILES),Ki [nM]
1,O=C(NCc1cccc2ccccc12)c1cc(-c2ccncc2)nc2ccccc12,113

# Target: T1, Cytochrome P450 2C9
# Assay: Inhibition of reconstituted CYP2C9
# Format: ADME
row,Structure (SMILES),Ki [nM]
1,O=C(Nc1ccc2ccccc2c1)c1cc(-c2cccnc2)nc2ccc(Cl)cc12,1890
2,O=C(Nc1ccc2ccccc2c1)c1cc(-c2ccncc2)nc2ccc(Br)cc12,9
3,O=C(Nc1ccc2ccccc2c1)c1cc(-c2ccncc2)nc2ccc(Cl)cc12,12
4,O=C(Nc1ccc2ccccc2c1)c1cc(-c2ccncc2)nc2ccccc12,33
5,O=C(Nc1ccc2ccccc2c1)c1cc(-c2cccnc2)nc2ccccc12,1150
6,O=C(Nc1ccc2ccccc2c1)c1cc(-c2cccnc2)nc2ccc(Br)cc12,> 37900
7,O=C(Nc1cccc2ccccc12)c1cc(-c2cccnc2)nc2ccccc12,1250
8,O=C(Nc1ccc2ccccc2c1)c1cc(-c2ccccn2)nc2ccccc12,10700
9,O=C(c1cc(-c2cccnc2)nc2ccccc12)N1CCCCC1,9740
10,O=C(c1cc(-c2ccncc2)nc2ccccc12)N1CCC(N2CCCC2)CC1,3670
11,O=C(NCc1cccc2ccccc12)c1cc(-c2cccnc2)nc2ccccc12,152
12,O=C(NCc1cccc2ccccc12)c1cc(-c2ccccn2)nc2ccccc12,> 43500
13,O=C(Nc1ccccc1)c1cc(-c2ccncc2)nc2ccccc12,100
14,O=C(Nc1ccccc1)c1cc(-c2cccnc2)nc2ccccc12,4060
15,Cc1cc(C)c2nc(-c3ccncc3)cc(C(=O)Nc3ccc4ccccc4c3)c2c1,11
16,O=C(c1cc(-c2ccccn2)nc2ccccc12)N1CCC(N2CCCC2)CC1,76200
17,O=C(c1cc(-c2ccncc2)nc2ccccc12)N1CCCCC1,9940
18,O=C(c1cc(-c2ccccn2)nc2ccccc12)N1CCCCC1,23600
19,O=C(Nc1ccccc1)c1cc(-c2ccccn2)nc2ccccc12,3470
20,Cc1cc(C)c2nc(-c3ccccn3)cc(C(=O)Nc3ccc4ccccc4c3)c2c1,> 20600
21,O=C(NCc1cccc2ccccc12)c1cc(-c2ccncc2)nc2ccccc12,125
22,O=C(c1cc(-c2cccnc2)nc2ccccc12)N1CCC(N2CCCC2)CC1,24100
23,O=C(Nc1cccc2ccccc12)c1cc(-c2ccccn2)nc2ccccc12,1320
24,Cc1cc(C)c2nc(-c3cccnc3)cc(C(=O)Nc3ccc4ccccc4c3)c2c1,8550

# Target: T1, Cytochrome P450 2C9
# Assay: Binding affinity to CYP2C9 assessed as spectral dissociation constant
row,Structure (SMILES),Kd [nM]
1,O=C(Nc1ccccc1)c1cc(-c2ccncc2)nc2ccccc12,325
2,O=C(NCc1cccc2ccccc12)c1cc(-c2ccncc2)nc2ccccc12,1280
